# Laboratory results: paper PMC11774906, “Volume-regulated anion channels conduct ATP in undifferentiated mammary cells and promote tumorigenesis in xenograft nude mouse” (Frontiers in Cell and Developmental Biology, 2025)
# Target: T1, volume-regulated anion channels (VRACs); LRRC8A-containing hexamer (Homo sapiens, UniProt Q8IWT6)
# T1 construct: native channel in intact MCF10A cells; LRRC8 heterohexamer of undefined subunit composition, LRRC8A essential; A, C, D prominently expressed, B and E minimal
# T1 sequence (Q8IWT6 1-810): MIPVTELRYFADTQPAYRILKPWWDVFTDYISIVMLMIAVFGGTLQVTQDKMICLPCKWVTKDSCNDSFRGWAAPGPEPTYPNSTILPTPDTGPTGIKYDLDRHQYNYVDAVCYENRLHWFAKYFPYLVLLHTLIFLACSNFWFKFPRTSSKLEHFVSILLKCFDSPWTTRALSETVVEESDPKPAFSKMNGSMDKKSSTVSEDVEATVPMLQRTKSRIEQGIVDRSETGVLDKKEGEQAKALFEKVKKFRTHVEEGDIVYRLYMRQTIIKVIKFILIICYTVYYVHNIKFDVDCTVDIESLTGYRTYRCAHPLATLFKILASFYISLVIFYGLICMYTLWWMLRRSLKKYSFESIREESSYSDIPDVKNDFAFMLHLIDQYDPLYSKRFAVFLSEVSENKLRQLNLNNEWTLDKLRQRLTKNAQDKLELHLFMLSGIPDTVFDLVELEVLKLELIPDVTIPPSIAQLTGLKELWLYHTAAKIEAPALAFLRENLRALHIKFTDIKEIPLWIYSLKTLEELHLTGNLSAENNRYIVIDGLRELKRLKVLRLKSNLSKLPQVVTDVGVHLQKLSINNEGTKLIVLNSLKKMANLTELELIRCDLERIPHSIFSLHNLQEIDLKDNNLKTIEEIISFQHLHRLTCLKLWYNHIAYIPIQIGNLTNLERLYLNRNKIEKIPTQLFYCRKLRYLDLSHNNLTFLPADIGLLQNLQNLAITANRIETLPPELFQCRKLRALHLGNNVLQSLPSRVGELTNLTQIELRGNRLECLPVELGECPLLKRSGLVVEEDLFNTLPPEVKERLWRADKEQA
# T1 sequence (Q8TDW0 1-803 partner): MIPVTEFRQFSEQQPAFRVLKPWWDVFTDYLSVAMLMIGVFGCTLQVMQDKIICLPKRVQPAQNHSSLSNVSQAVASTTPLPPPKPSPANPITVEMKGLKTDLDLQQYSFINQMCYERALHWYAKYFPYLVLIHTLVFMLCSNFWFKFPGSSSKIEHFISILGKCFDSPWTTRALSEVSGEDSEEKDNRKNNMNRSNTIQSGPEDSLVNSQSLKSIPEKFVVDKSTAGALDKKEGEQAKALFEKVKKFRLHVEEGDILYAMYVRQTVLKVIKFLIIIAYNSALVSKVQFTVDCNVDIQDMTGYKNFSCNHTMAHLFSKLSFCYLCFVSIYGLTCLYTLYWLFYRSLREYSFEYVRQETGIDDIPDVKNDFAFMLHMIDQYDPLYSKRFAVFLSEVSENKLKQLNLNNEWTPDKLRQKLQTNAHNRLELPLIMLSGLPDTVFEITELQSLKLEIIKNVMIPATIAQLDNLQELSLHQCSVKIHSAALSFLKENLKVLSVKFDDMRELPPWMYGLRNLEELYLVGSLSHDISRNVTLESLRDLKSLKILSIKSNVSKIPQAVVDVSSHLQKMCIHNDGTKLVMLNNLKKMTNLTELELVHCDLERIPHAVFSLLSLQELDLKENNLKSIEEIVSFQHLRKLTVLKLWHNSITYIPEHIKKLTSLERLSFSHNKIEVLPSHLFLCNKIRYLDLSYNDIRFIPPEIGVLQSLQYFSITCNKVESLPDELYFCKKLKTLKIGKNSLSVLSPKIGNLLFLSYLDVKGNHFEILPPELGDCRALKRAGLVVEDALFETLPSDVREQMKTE
# T1 sequence (Q7L1W4 1-858 partner): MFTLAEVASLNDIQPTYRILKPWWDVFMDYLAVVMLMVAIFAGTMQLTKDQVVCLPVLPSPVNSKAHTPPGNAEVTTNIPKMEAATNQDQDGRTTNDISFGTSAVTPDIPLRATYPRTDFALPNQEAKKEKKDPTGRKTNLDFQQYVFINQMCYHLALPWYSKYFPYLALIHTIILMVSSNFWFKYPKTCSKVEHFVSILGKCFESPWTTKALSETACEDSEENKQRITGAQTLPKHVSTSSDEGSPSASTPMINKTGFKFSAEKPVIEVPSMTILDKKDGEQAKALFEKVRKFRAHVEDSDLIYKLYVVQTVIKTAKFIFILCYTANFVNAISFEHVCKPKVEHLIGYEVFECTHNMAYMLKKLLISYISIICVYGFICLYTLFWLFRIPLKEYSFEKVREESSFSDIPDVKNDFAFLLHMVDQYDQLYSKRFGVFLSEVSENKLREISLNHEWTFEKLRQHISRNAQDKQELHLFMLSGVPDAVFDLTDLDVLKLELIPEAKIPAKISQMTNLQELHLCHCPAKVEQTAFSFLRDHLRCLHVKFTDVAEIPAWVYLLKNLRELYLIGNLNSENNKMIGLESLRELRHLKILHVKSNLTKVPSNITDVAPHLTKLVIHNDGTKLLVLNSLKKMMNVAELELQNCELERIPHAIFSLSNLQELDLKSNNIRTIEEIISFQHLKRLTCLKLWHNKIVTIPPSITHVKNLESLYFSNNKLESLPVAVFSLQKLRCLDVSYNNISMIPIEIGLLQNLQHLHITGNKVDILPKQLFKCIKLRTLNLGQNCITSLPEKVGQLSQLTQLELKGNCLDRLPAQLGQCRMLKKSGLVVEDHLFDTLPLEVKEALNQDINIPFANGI
# Test: luciferin-luciferase imaging of hypotonic diffuse ATP release in MCF10A cells
# Assay type: cell-based
# Conditions: 50% hypotonic stress; pH 7.4, 30 °C; decay of ATP signal after DCPIB, exponential fit; indirect read-out (ATP release)
structure (smiles),measurement,value
"CCCCC1(C2CCCC2)Cc2cc(OCCCC(=O)O)c(Cl)c(Cl)c2C1=O (stereo not shown) [DCPIB, 4-[(2-Butyl-6,7-dichloro-2-cyclopentyl-2,3-dihydro-1-oxo-1H-inden-5-yl)oxy] butanoic acid]",IC50,38.5 µM
